Laboratory results taken from article PMC3924328, “Structure of the S100A4/myosin-IIA complex” (BMC Structural Biology, 2013).
The star is where a group is joined. FITC = O=C1OC2(c3ccc(O)cc3Oc3cc(O)ccc32)c2ccc(NC(=S)*)cc21; Ahx = NCCCCCC(=O)O

Legend:
[1] = tested on: myosin-IIA rods (MIIA^1339−1960); assay: Promotion of disassembly assay, assembled myosin-IIA rods; format: biochemical; details: one S100A4Δ8C dimer per myosin-IIA rod; 1.5 μM S100A4 dimer, 1.5 μM rod dimer; 20 mM Tris–HCl pH 7.5, 150 mM NaCl, 1 mM DTT, 2 mM MgCl2, 0.5 mM CaCl2, 0.02% NaN3; 2 hr, 22°C; SDS-PAGE densitometry; two independent experiments
Protocol: Assays comparing the ability of wild-type and the Δ8C S100A4 to depolymerize assembled myosin-IIA rods were performed as described in Li et al., using 1.5 μM S100A4 dimer and 1.5 μM myosin-IIA rod dimer in 20 mM Tris–HCl pH 7.5, 150 mM NaCl, 1 mM DTT, 2 mM MgCl2, 0.5 mM CaCl2, and 0.02% NaN3. Reaction mixtures (100 μl) were incubated for 2 hr at 22°C and then centrifuged at 80,000 rpm (175000 g) for 10 min at 25°C in a TL-100 ultracentrifuge (Beckman). Samples of the reaction mixtures and supernatants were separated on a 12% Tris-Tricine SDS-polyacrylamide gel. Coomassie-stained gels were scanned and the extent of myosin-IIA polymerization was quantified by densitometry and analyzed with the ImageQuant version 5.2.

S100A4Δ8C [2] = target: T1, S100A4Δ8C (Homo sapiens, UniProt P26447); assay: NMR titration of MIIA^1908-1923 into ^15N-labeled Ca^2+-bound S100A4Δ8C; format: binding
T1 construct: unable to crystallize the wild-type full-length S100A4 with myosin-IIA peptides; made in house; host or cells: E. coli BL21(DE3)*
T1 sequence (P26447 2-93, stated change not applied): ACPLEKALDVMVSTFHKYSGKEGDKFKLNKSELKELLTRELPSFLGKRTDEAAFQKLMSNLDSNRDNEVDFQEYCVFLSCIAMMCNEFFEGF
Protocol: (§1) HSQC NMR data were collected at 37°C with a 600 MHz (600.13 MHz for protons) Bruker DMX NMR spectrometer equipped with pulsed-field gradients, four frequency channels, and a triple resonance, z-axis gradient cryogenic probe, Data were processed with NMRPipe, and proton chemical shifts were reported with respect to the H2O or HDO signal taken as 4.658 ppm relative to external trimethylsilylpropionic acid (0.0 ppm). The ^15 N chemical shifts were indirectly referenced as described previously using the following ratio of the zero-point frequency: 0.10132905 for ^15 N to ^1H [56].

S100A4 [3] = details: S100A4 bound to MIIA^1908-1923; ref [4]; cited from earlier work
Source text: In this regard, we examined whether this small peptide was sufficient to induce what is termed the “final folding” event that occurs upon S100 protein-target complex formation. […] As found for other wild-type and mutant S100 proteins [[6] ...

S100A4 [4] = target: S100A4; set-up: method as in PMID 18410126; details: ref [4]; cited from earlier work
Ca^2+-S100A4 = assay: Paramagnetic relaxation, titration with spin-labeled MIIA^1893-1923-Cys-Proxyl; format: binding, human; details: HSQC, 37°C, pH 6.5
Protocol: The beads containing the immobilized TCEP and other particulates were removed using a 0.45 μm Nanosep MF GHP centrifugal device (Pall Life Sciences) before the addition of 61 μl freshly prepared 50 mg/ml 3-maleimido-Proxyl (Sigma-Aldrich) in DMSO.
as §1

S100A4Δ8C [5] = target: T1, S100A4Δ8C; assay: Fluorescence anisotropy, FITC-MIIA^1904-1927 binding to S100A4Δ8C; details: 22°C, 5 mM EGTA, data not shown
Protocol: Fluorescence anisotropy measurements were performed at 22°C using a Fluoromax-3-spectrofluorometer (Jobin Yvon). Individual reactions (200 μl) contained 50 nM FITC-MIIA^1904-1927 and 0–30 μM S100A4Δ8C dimer in 20 mM Tris pH 7.5, 150 mM KCl, 1 mM DTT, 0.02% NaN3, 0.5 mM CaCl2 and 0.5 mg/ml BSA. For competition anisotropy measurements individual reactions contained 50 nM FITC-MIIA^1904-1927, 0.3 μM S100A4 dimer and 0–10 μM MIIA^1851-1960 dimer as described above. Controls included experiments representing maximum anisotropy (15 μM wild-type S100A4 and S100A4Δ8C, 50 nM FITC-MIIA^1904-1927 and calcium) and minimum anisotropy (in the absence of S100A4 and in the presence of S100A4 and 5 mM EGTA). Anisotropy was measured using excitation and emission wavelengths of 490 nm and 520 nm, respectively. Measurements were acquired at the magic angle of 55° between the vectors of polarization of the excitation and emission light using a G factor of 0.634 as determined previously for FITC on this instrument. For measurements of S100A4Δ8C binding, data from two independent experiments were plotted using Graphpad Prism v5, and the dissociation constant was calculated by fitting to a single site saturation binding equation allowing for a floating Ymin value. […]

S100A4 [6] = target: T2, S100A4 (Homo sapiens, UniProt P26447); assay: Sedimentation velocity of MIIA^1851-1960, S100A4 and S100A4/MIIA^1851-1960 mixtures; format: physicochemical
T2 construct: heteronuclear single quantum coherence spectrum (HSQC) of full-length Ca^2+-S100A4 at 600 MHz; made in house; host or cells: E. coli, M9 medium with 15N NH4Cl (BL21(DE3)* is named for the unlabelled protein)
T2 sequence (P26447 2-101 limits assumed, one chain of several): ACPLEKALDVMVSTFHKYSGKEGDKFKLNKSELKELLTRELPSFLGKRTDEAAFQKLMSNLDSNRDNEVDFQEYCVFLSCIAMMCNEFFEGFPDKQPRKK
Protocol: Sedimentation equilibrium and velocity experiments were conducted at 22°C in a Beckman XL-I analytical ultracentrifuge using a Ti60 rotor and Raleigh interference optics. Wild-type S100A4 and MIIA^1851-1960 were dialyzed into 20 mM Tris pH 7.5, 150 mM KCl, 0.5 mM CaCl2, 1 mM TCEP and 0.02% NaN3 and clarified by ultracentrifugation at 80,000 rpm for 10 minutes at 4°C in TLA 120.2 rotor. Sedimentation equilibrium analysis of MIIA^1851-1960 and S100A4 was conducted in six channel centerpieces by sequentially equilibrating the protein at three concentrations for 24 hr at 12,000, 20,000 and 28,000 rpm and globally analyzing the data using HeteroAnalysis v1.1.44 (James L. Cole and Jeffrey W. Lary). The sedimentation velocity experiments were conducted at 53,000 rpm using double sector centerpieces and analyzed using DCDT + v2.4.0 [57, 58]. The best-fit parameters and their 95% joint confidence intervals are reported. The calculated masses of the wild-type S100A4 and MIIA^1851-1960 monomers are 11,597.3 and 12,397.5 Da, respectively. Values of ν-bar = 0.715 for S100A4/MIIA^851-1960 and 0.735 for S100A4, ρ = 1.0059, μ = 1.00586 cp were calculated using Sednterp v1.06 (Hayes, B., T. Laue & J. Philo, Sedimentation Interpretation Program. 2003, University of New Hampshire) from the amino acid and buffer compositions, respectively.

myosin-IIA rods = details: assembly-competent myosin-II rod constructs; ref [19], [20]; cited from earlier work
Source text: Each heavy chain is comprised of an N-terminal motor domain that contains the ATP- and actin-binding sites, an intermediate rod domain that dimerizes to form an α-helical coiled-coil and a C-terminal tailpiece.

[7] = submicromolar concentrations; ref [4], [27], [30]; cited from earlier work
Protocol: Given the similarity in the molecular weights of the S100A4 and MIIA^1851-1960 dimers, the S100A4/MIIA^1851-1960 complex was further evaluated in sedimentation velocity experiments where MIIA^1851-1960 was added to S100A4 at increasing molar ratios. […] At a molar ratio of 0.5:1 MIIA^1851-1960 dimer to S100A4 dimer there was a shift in the S val ...

[8] = sedimentation velocity, 22°C, protein alone

For “S100A4Δ8C: S100A4 deletion mutant (deletion of the C-terminal eight amino acids)”, the Myosin-IIA filaments disassembled [1] was “approximately 85%”.
For “Ace-DAMNREVSSLKNKLRR-CONH2 [MIIA^1908-1923]”, the “Binding orientation to S100A4Δ8C versus wild-type S100A4” value (S100A4Δ8C [2]; 37°C, pH 6.5, 10 mM CaCl2) is given as “very similar structure/orientation in solution as observed for wild-type S100A4”, the “Exchange broadening of Ca^2+-bound S100A4Δ8C upon complex formation” value (S100A4Δ8C [2]; data not shown) is given as “exchange broadening completely disappeared” and the “Ca^2+-binding affinity of S100A4 when peptide bound” value (S100A4 [3]) is given as “higher Ca^2+-binding affinity”.
For “Ac-RRKLQRELEDATETADAMNREVSSLKNKLRR-CONH2 [MIIA^1893-1923]”, the “Dissociation constant, in words” value (S100A4 [4]) is given as “in the nanomolar range”.
With “MIIA^1893-1923-Cys-Proxyl: MIIA^1893-1923-Cys labeled with 3-maleimido-Proxyl spin label” the “Residues with large reductions in cross-peak intensities” value (Ca^2+-S100A4; 2.6 μM spin-labeled peptide) was “loop 1 (Asp25), the beginning of helix 3 (Asp51, Glu52) and in the C-terminal loop (Lys100)” and the “Location of peptide C-terminus on S100A4 by paramagnetic relaxation” value (Ca^2+-S100A4; 2.6 and 5.3 μM spin-labeled peptide) was “near residues in helix 3 and the hinge (Leu46, Gly47, Asp51, Glu52”.
With “{FITC-Ahx}-TETADAMNREVSSLKNKLRRGDLP-NH2 [FITC-MIIA^1904-1927]” the “Binding to S100A4Δ8C in the presence of EGTA” value (S100A4Δ8C [5]) was “no binding was observed”.
In the case of “S100A4: untagged, full-length human S100A4”, the “Effect of S100A4 binding on dimeric myosin-IIA construct” value (S100A4 [6]; longer, dimeric myosin-IIA construct) is reported as “dissociates the two myosin-IIA polypeptide chains to form a complex composed of one S100A4 dimer and a single myosin-IIA polypeptide chain”, the “Peak 1 S20,w” value (S100A4 [6]; sedimentation velocity, 22°C, 53,000 rpm, protein alone, 20 mM Tris pH 7.5, 150 mM KCl, 0.5 mM CaCl2, 1 mM TCEP, 0.02% NaN3) is reported as 1.90 ± 0.01 and the “Peak 1 MW” value (S100A4 [6]; [8]) is reported as 21.2 ± 0.3 kDa. The S value (S100A4 [6]; [8]) was 1.9 S, the “[Peak 1] (green), relative amount of plateau concentrations” value (S100A4 [6]; [8]) was 2.00 ± 0.02 and the Myosin-II isoform preference (myosin-IIA rods) was “preferentially recognizes and disassembles myosin-IIA rods”. For the same substance, the Dimer stability [7] was “thermostable dimer at submicromolar concentrations”.
